Experiments:
cccDNA in HepDES19 cells = assay: cccDNA Southern Blot assay; format: cell-based, HBV; details: 5 days' compound treatment, FIG. 1
Procedure: HepDES19 cells were seeded at 4×10^6 cells per T150 in the culture medium (Dulbecco's Modified Eagle Medium: Nutrient Mixture F-12 [DMEM-F12, Gibco Cat. 11320-82], 10% Fetal Bovine Serum [FBS, Clontech Cat. 631101], 0.1 mM Non-Essential Amino Acids Solution [NEAA, Gibco Cat. 11140-050], 50 μg/mL Penicillin-Streptomycin [PS, Invitrogen Cat. 15140-163], 500 μg/mL Geneticin [G418, Invitrogen Cat. 10131-027]) in the absence of Tet for 8 days. These cells were seeded at the density of 1×10^6 cells per well in 6-well plate. At 24 hrs after seeding, serial dilutions of compounds made with DMSO (Sigma, Cat. D2650) were further diluted with the same culture medium as described above before they were added to the cells to reach desired final compound concentrations and 1% DMSO concentration. After 5 days' compound treatment, the cells growing in one well from 6-well plate were re-suspended with 500 μL re-suspension buffer (50 mM tris[hydroxymethyl]amino methane pH 7.5), 10 mM ethylenediaminetetraacetic acid (EDTA), 50 μg/mL RNase A [Qiagen, Cat. 158922]. 500 μL of 1.2% sodium dodecyl sulfate (SDS) was then added into the re-suspended cells to lyse the cells. After 15 minutes' incubation, 700 μL precipitation buffer (3M cesium chloride, 1M potassium acetate, 0.67M acetic acid) was added and the lysate was incubated at 4° C. for 2 h. […]

[1] = test system: HBV in primary human hepatocytes (PHH); assay: Cryopreserved primary human hepatocytes (PHH) HBV infection assay; format: cell-based; details: Hepatitis B virus, Hepatocyte, 216 h, HBV-infected cryopreserved PHH, 9 days post-compound treatment, extracellular HBsAg by CLIA; read-out: HBsAg IC50
Summary of the method: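 Cryopreserved PHH (5.8×10^4 cells/well) were infected with 5.8×10^6 HBV genome equivalents in 4% PEG8000/1% DMSO medium. Extracellular HBsAg was measured by CLIA and HBV DNA by qPCR, with IC50 from 4-parameter logistic fits.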

SMILES: O=C(O)C1CC(OCCOc2ccc(-c3cc(=O)c4cccc(Cl)c4o3)cc2)C1 (centres unmarked) [Example 1, 3-[2-[4-(8-chloro-4-oxo-chromen-2-yl)phenoxy]ethoxy]cyclobutanecarboxylic acid]
- cccDNA level in cccDNA Southern Blot assay (cccDNA in HepDES19 cells): dose-dependently reduced cccDNA level
- IC50 [1]: 130 nM
